# Test results from US8642625B2, “Therapeutic agent or preventive agent for urine collection disorder” (Toray Industries, Inc., priority 2010, dated 2014).
# Like-named read-outs stand apart in the source and are kept apart here.
# Experiments:
# [1] = tested on: cyclophosphamide-induced pollakiuria model rats; test: Effects in cyclophosphamide-induced pollakiuria model rats (continuous cystometrograms); type: in vivo, rat; details: 5 mg/kg intravenous; 20 minutes after vs 20 minutes before administration; compared to the vehicle group, p<0.05
# Method: In the experiments, 6 to 7 female SD rats of 7 to 11 weeks old were used for one experimental group. The pollakiuria model (Lecci A et al., British Journal of Pharmacology, 2000, vol. 130, p. 331) was prepared by intraperitoneally administering cyclophosphamide (SIGMA) to rats (150 mg/kg). This model has been considered to be useful as a model of urine storage disorders associated with inflammatory disease, in particular, a model of pollakiuria of interstitial cystitis. Four to five hours after administration of cyclophosphamide, pollakiuria model rats were anesthetized by intraperitoneal administration of urethane (1 g/kg). Thereafter, a small incision was formed in the hypogastrium, and both ureters were ligated, followed by forming small incision in the ureters at the side of the kidney. Next, the bladder apex of each pollakiuria model rat was incised, and a polyethylene tube filled with physiological saline was inserted and indwelled. […]
# The number of voiding episodes was counted based on CMGs. Taking the number of voiding episodes counted for a time period of 20 minutes before the administration of the test compound as 100%, the number of voiding episodes counted for a time period of 20 minutes after the administration of the test compound was expressed in %, which was used as the ratio of change in the number of voiding episodes. […]
# [2] = tested on: muscarinic receptor subtypes; test: Binding ability to human muscarinic receptors, overall statement; details: any of M1 to M5; 10 μmol/L
# Method: (§1) CHO cells expressing human muscarinic M1, 2, 3, 4 and 5 receptors, respectively, were used (Buckley N J et al., Mol. Pharmacol., 1989, vol. 35, no. 4, p. 469-476). Receptor binding experiments were carried out according to a conventional method (Luthin G R et al., Pharmacol Exp Ther., 1984, vol. 228, no. 3, p. 648-655). As a radiolabeled ligand, 0.8 nmol/L [^3H]N-Methylscopolamine was used; and as a nonspecific ligand, 1 μmol/L Atoropine was used.
# [3] = target: T1, human muscarinic M5 receptor (Homo sapiens, UniProt P08912); test: Binding ability to human muscarinic receptors ([3H]N-Methylscopolamine); details: 0.8 nmol/L [3H]N-Methylscopolamine, CHO cells
# T1 construct: expressed in transfected cells; host or cells: CHO cells
# T1 sequence (P08912 1-532): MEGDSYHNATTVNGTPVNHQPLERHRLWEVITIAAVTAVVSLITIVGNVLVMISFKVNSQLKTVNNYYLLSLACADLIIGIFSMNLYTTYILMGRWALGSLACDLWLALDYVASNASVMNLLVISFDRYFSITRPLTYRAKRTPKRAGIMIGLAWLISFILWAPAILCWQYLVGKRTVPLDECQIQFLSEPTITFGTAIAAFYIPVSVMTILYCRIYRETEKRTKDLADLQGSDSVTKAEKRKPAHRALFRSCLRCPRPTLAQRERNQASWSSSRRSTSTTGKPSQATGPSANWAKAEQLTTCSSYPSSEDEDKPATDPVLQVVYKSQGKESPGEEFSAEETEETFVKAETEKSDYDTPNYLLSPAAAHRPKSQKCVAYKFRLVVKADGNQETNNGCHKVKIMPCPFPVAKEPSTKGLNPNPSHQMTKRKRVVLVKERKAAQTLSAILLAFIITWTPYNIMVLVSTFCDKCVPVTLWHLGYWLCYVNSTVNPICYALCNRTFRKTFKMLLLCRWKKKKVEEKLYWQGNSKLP
# Method: as §1
# [4] = target: T2, human muscarinic M2 receptor (Homo sapiens, UniProt P08172); test: as above; details: 0.8 nmol/L [3H]N-Methylscopolamine, CHO cells
# T2 construct: expressed in transfected cells; host or cells: CHO cells
# T2 sequence (P08172 1-466): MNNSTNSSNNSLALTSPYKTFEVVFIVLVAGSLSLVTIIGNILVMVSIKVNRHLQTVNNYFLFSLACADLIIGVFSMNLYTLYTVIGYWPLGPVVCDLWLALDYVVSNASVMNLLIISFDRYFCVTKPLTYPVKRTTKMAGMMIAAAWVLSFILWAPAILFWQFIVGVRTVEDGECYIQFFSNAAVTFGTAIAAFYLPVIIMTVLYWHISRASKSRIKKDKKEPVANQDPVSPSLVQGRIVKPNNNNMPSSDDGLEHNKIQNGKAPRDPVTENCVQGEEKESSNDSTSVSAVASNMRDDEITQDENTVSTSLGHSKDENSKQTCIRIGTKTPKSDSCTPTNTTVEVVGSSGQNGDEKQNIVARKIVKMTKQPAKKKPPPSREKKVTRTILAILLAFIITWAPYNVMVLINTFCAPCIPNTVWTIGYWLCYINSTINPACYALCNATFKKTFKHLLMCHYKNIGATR
# Method: as §1
# [5] = target: T3, human muscarinic M3 receptor (Homo sapiens, UniProt P20309); test: as above; details: 0.8 nmol/L [3H]N-Methylscopolamine, CHO cells
# T3 construct: expressed in transfected cells; host or cells: CHO cells
# T3 sequence (P20309 whole entry): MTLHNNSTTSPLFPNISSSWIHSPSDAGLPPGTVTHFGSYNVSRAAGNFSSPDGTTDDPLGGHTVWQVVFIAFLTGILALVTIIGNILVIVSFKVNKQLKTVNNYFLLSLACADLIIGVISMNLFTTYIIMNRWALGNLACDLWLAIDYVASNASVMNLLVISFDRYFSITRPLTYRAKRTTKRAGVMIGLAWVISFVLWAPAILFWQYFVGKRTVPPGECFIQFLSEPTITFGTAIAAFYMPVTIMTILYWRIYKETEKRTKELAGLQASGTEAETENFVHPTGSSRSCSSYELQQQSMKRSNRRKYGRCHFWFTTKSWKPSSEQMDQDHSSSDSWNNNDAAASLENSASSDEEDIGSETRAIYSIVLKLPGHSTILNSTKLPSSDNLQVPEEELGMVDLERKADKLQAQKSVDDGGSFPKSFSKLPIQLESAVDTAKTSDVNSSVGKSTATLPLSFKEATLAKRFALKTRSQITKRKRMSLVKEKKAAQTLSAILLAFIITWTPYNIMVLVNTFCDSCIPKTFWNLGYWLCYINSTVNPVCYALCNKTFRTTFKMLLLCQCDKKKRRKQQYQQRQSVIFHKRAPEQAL
# Method: as §1
# [6] = target: T4, human muscarinic M4 receptor (Homo sapiens, UniProt P08173); test: as above; details: 0.8 nmol/L [3H]N-Methylscopolamine, CHO cells
# T4 construct: expressed in transfected cells; host or cells: CHO cells
# T4 sequence (P08173 1-479): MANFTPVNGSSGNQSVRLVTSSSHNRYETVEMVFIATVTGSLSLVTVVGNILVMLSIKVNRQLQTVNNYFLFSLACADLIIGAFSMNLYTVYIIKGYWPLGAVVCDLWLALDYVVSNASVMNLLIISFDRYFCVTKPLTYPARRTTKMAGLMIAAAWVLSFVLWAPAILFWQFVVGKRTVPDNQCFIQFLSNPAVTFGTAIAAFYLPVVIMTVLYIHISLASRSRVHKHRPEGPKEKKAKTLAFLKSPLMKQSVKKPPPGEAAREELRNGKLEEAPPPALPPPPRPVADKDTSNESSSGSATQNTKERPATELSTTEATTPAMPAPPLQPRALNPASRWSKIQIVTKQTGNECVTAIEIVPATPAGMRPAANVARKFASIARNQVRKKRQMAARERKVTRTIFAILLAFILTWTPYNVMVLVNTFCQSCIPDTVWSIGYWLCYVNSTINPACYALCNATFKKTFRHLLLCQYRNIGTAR
# Method: as §1
# [7] = target: T5, human muscarinic M1 receptor (Homo sapiens, UniProt P11229); test: as above; details: 0.8 nmol/L [3H]N-Methylscopolamine, CHO cells
# T5 construct: expressed in transfected cells; host or cells: CHO cells
# T5 sequence (P11229 1-460): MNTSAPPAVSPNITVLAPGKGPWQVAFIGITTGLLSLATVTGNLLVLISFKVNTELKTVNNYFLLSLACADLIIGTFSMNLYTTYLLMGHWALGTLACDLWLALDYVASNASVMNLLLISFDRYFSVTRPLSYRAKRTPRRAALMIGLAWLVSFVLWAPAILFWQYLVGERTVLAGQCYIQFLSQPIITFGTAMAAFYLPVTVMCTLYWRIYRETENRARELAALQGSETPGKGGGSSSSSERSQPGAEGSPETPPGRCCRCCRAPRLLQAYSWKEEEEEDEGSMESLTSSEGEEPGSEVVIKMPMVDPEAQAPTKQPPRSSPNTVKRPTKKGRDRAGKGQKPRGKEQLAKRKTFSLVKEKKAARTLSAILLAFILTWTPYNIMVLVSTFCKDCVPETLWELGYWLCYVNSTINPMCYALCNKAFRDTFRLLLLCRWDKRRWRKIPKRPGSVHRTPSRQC
# Method: as §1
# [8] = tested on: mouse acetic acid writhing model; test: Mouse acetic acid writhing model (effects on pain); type: in vivo; details: oral, 45 minutes before 0.6% acetic acid i.p., read-out: ED50 (dose by which the writhing response was inhibited by 50%)
# Method: The mouse acetic acid writhing model, by which pain can be evaluated, was used to evaluate the analgesic effect of Compound (I).
# Male ddY mice of 5 to 6 weeks old were fasted for 16 hours while allowing them to freely drink water, and a test compound solution or its vehicle was orally administered (10 mL/kg) to them. DMSO:Tween80:distilled water (1:1:8) or 27% hydroxypropyl-β-cyclodextrin (hereinafter “HP-β-CD”) was used as a vehicle of test compound solutions. Forty five minutes after the administration, 0.6% acetic acid solution (10 mL/kg) was intraperitoneally administered thereto to induce writhing response (i.e., the behavior to stretch the body and/or bend the body backward). The number of the writhing response observed for 10 minutes from 10 minutes after the administration of acetic acid solution was counted, which was taken as an indicator of pain.
# Taking the mean number of writhing response of the vehicle group as 100%, the dose of a test compound by which the response was inhibited by 50% was expressed as “ED50”.
SMILES,ED50 ([8]; Vehicle B (HP-β-CD)) [mg/kg],further results
"COc1ccc(-n2nc(C3(O)CCC(O)CC3)cc2-c2ccc(C)cc2)cc1 (stereo not drawn) [Compound 3, 1-(1-(4-methoxyphenyl)-5-(p-tolyl)-1H-pyrazol-3-yl)cyclohexan-cis-1,4-diol]",,increase in the number of voiding episodes (ratio of change in the number of voiding episodes) [1]: significantly improved; binding to muscarinic receptor subtypes [2]: did not bind; Inhibition Ratio by 10 μmol/L Compound 3 (%) [3]: −4%; Inhibition Ratio by 10 μmol/L Compound 3 (%) [4]: −6%; Inhibition Ratio by 10 μmol/L Compound 3 (%) [5]: −4%; Inhibition Ratio by 10 μmol/L Compound 3 (%) [6]: −1%; Inhibition Ratio by 10 μmol/L Compound 3 (%) [7]: −10%
Cc1ccc(-c2cc(C3(O)CCC(O)CC3)nn2-c2ccc(C#N)cc2)cc1 (stereo not shown) [Compound 49],2.69,
COc1ccc(-n2nc(C3(O)CCC(O)CC3)cc2-c2ccc(C#N)cc2)cc1 (stereo not shown) [Compound 51],4.69,
"COc1ccc(-n2nc(C3(O)CCC(OC(=O)OC4CCCCC4)CC3)cc2-c2ccc(C)cc2)cc1 (stereo not drawn) [Compound 60, cyclohexyl 4-hydroxy-4-(1-(4-methoxyphenyl)-5-(p-tolyl)-1H-pyrazol-3-yl)-cis-cyclohexyl carbonate]",6.18,
CCOC(=O)OC1CCC(O)(c2cc(-c3ccc(C)cc3)n(-c3ccc(OC)cc3)n2)CC1 (stereo not shown) [Compound 61],4.79,
COc1ccc(-n2nc(C3(O)CCC(O)CC3)cc2-c2ccc(C)cc2)cc1F (stereo not shown) [Compound 54],3.73,
"COc1ccc(-c2nc(C3(O)CCC(O)(C(F)(F)F)CC3)sc2-c2ccc(C)cc2)cc1 (stereo not drawn) [Compound 46, 1-(4-(4-methoxyphenyl)-5-(p-tolyl)thiazol-2-yl)-4-(trifluoromethyl)cyclohexan-cis-1,4-diol]",9.65,
"COc1ccc(-n2nc(C3(O)CCC(OC(C)=O)CC3)cc2-c2ccc(C)cc2)cc1 (stereo not shown) [Compound 12, c-4-hydroxy-4-(1-(4-methoxyphenyl)-5-(p-tolyl)-1H-pyrazol-3-yl)-cyclohexan-r-1-yl acetate]",1.77,
"COc1ccc(-n2nc(C3(O)CCC(=O)CC3)cc2-c2ccc(C)cc2)cc1 [Compound 4, 4-hydroxy-4-(1-(4-methoxyphenyl)-5-(p-tolyl)-1H-pyrazol-3-yl)cyclohexan-1-one]",,ED50 ([8]; Vehicle A (DMSO:Tween80:distilled water=1:1:8)): 1.95 mg/kg
"COc1ccc(-n2nc(C3(O)CCC(O)CC3)cc2-c2ccc(C)nc2)cc1 (stereo not drawn) [Compound 15, 1-(1-(4-methoxyphenyl)-5-(6-methylpyridin-3-yl)-1H-pyrazol-3-yl)cyclohexan-cis-1,4-diol]",6.07,
